Experimental data as given in US20170008888A1 (KYORIN PHARMACEUTICAL CO., LTD., priority 2014, published 2017).

Key:
human PBMCs = assay: Human PBMC TNF-α response to endotoxin (ELISA); type: cell-based; conditions: 0.1 μg/ml LPS 16 h, read-out: EC50 for the inhibition of the human PBMC TNF-α response to endotoxin, ave. ± S.D.
How it was run: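 PBMCs at 2e6 cells/ml in RPMI 1640 with 10% charcoal-dextran-treated FBS were pre-treated 1 h at 37 °C with compound (4-point 1:5 dilution from 10 μM). Stimulation with 0.1 μg/ml E. coli 0111:B4 LPS for 16 h; TNF-α measured by ELISA (A450) in 25-fold diluted supernatant.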

JAK1 = target: T1, JAK1 (Homo sapiens, UniProt P23458); assay: Probe-based (AX9989) kinase profiling in Jurkat lysate: JAK1; type: binding; conditions: read-out: Kinase inhibition % at indicated screening concentration: JAK1; for inhibition at 0.1 µM: screening concentration 0.1 μM; for inhibition at 1 µM: screening concentration 1.0 μM
T1 construct: screened for activity against several kinases in Jurkat cells; endogenous in cells; host or cells: Jurkat cell lysate
T1 sequence (P23458 whole entry): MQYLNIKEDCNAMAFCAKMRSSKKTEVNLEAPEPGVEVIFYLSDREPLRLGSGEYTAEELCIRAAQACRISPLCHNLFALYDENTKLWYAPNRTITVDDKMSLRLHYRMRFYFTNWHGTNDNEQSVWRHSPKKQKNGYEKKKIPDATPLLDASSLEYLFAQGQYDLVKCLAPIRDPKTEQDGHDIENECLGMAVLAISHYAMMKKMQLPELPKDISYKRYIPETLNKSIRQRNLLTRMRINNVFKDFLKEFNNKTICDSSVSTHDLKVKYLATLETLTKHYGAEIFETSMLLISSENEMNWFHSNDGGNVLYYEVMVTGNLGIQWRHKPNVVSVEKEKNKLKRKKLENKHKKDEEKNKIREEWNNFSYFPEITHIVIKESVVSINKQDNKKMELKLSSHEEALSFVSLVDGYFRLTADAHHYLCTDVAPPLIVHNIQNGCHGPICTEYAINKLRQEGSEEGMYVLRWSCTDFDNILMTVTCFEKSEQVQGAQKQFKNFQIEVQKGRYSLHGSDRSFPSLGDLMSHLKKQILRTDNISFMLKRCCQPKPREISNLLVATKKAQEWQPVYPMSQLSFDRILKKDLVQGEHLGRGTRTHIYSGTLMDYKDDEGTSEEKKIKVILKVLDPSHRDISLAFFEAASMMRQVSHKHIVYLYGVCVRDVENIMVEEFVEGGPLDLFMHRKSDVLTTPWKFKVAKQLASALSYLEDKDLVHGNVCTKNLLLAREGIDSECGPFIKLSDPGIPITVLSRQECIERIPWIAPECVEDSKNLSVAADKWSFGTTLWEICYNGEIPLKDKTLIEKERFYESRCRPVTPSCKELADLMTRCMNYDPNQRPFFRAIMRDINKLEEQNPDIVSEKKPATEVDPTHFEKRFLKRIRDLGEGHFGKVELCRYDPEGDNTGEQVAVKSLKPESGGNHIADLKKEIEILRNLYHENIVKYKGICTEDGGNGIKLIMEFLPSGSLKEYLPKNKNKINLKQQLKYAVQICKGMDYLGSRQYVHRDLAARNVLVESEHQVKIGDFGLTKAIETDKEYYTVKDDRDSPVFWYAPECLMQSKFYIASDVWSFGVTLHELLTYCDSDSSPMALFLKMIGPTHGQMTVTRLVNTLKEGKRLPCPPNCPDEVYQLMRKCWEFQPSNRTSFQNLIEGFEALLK
How it was run: (§1)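 Read-out: LC/MS intensity of desthiobiotinylated kinase active-site peptides, percent inhibition normalized to no-compound lysate. Jurkat lysate with 20 mM MnCl2 received compound for 15 min at room temperature, then 5 μM AX9989 probe; duplicates.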

ERK5 = target: T2, ERK5 (Homo sapiens, UniProt Q13164); assay: Probe-based (AX9989 acyl phosphate ATP probe) kinase profiling in Jurkat lysate: ERK5; type: binding; conditions: for IC50: calculated from percent inhibition of AX9989 labeling and the screening concentration, Jurkat lysate; for inhibition at 0.1 µM: screening concentration 0.1 μM; for inhibition at 0.1 µM / inhibition at 1 µM: read-out: Kinase inhibition % at indicated screening concentration: ERK5; for inhibition at 1 µM: screening concentration 1.0 μM
T2 construct: screened for activity against several kinases in Jurkat cells; endogenous in cells; host or cells: Jurkat cell lysate
T2 sequence (Q13164 whole entry): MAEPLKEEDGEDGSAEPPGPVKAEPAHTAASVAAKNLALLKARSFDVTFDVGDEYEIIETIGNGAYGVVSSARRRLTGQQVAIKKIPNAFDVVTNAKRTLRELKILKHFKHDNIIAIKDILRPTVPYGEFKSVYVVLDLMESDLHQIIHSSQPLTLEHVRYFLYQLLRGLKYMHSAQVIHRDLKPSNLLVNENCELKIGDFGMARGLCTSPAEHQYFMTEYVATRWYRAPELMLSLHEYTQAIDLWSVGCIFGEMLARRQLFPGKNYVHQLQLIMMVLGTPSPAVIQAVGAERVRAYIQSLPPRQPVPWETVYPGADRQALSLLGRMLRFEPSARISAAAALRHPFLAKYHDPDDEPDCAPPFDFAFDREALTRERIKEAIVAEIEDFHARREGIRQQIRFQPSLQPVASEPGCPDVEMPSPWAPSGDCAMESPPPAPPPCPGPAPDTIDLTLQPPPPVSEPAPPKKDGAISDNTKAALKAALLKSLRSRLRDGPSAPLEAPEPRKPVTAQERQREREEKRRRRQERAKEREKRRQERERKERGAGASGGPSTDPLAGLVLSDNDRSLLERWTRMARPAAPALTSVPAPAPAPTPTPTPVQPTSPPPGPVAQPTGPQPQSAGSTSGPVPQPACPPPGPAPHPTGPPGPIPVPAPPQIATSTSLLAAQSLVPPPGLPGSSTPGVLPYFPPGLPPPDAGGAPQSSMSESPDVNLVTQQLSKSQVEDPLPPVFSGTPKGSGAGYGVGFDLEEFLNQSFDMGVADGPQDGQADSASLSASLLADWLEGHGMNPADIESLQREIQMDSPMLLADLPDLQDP
How it was run: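 ERK5 IC50 values came from percent inhibition at the screening concentration, measured as loss of LC/MS signal of probe-labelled active-site peptides. Compound was added for 15 min at room temperature to Jurkat lysate (5 mg/ml, 20 mM MnCl2) before labelling with AX9989 ATP acyl phosphate probe at 5 μM.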

AurB or AurC = assay: Probe-based (AX9989) kinase profiling in Jurkat lysate: AurB or AurC; type: binding
How it was run: as §1

ACK = target: T3, ACK (Homo sapiens, UniProt Q07912); assay: Probe-based (AX9989) kinase profiling in Jurkat lysate: ACK; type: binding; conditions: read-out: Kinase inhibition % at indicated screening concentration: ACK; for inhibition at 0.1 µM: screening concentration 0.1 μM; for inhibition at 1 µM: screening concentration 1.0 μM
T3 construct: screened for activity against several kinases in Jurkat cells; endogenous in cells; host or cells: Jurkat cell lysate
T3 sequence (Q07912 whole entry): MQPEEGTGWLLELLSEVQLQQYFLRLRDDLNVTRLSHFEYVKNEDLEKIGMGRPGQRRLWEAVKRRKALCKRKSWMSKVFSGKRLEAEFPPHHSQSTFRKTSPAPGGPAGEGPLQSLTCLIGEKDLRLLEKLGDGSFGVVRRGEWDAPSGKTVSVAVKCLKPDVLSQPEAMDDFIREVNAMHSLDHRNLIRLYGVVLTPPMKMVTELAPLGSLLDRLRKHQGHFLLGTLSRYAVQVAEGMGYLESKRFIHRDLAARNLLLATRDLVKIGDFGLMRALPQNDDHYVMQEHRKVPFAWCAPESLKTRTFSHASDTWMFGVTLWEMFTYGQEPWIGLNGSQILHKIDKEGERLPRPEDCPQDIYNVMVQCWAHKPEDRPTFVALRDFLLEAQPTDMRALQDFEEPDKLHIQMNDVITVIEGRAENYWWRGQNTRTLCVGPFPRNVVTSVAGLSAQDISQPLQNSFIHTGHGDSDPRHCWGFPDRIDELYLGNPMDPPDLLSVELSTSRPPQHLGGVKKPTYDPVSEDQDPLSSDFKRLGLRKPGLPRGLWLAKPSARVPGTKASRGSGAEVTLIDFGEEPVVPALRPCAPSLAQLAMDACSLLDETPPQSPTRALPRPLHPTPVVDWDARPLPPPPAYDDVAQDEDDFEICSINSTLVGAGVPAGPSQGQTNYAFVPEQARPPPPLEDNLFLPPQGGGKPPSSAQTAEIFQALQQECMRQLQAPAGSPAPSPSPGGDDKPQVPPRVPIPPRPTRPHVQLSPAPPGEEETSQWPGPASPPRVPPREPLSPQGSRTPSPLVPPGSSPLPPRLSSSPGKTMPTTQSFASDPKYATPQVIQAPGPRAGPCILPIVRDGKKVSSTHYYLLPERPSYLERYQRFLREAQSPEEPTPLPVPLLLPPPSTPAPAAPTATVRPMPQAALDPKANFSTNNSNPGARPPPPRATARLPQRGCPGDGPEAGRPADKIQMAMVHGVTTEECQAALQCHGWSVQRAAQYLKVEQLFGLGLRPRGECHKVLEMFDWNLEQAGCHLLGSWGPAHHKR
How it was run: as §1

ABL or ARG = assay: Probe-based (AX9989) kinase profiling in Jurkat lysate: ABL or ARG; type: binding
How it was run: as §1

SMILES	EC50 (human PBMCs) [nM]	inhibition at 0.1 µM (JAK1) [%]	IC50 (ERK5) [nM]	inhibition at 0.1 µM (ERK5) [%]	Kinase inhibition % at indicated screening concentration: AurB or AurC (AurB or AurC; screening concentration 0.1 μM)	inhibition at 0.1 µM (ACK) [%]	Kinase inhibition % at indicated screening concentration: ABL or ARG (ABL or ARG; screening concentration 0.1 μM)	inhibition at 1 µM (JAK1) [%]	inhibition at 1 µM (ERK5) [%]	Kinase inhibition % at indicated screening concentration: AurB or AurC (AurB or AurC; screening concentration 1.0 μM)	inhibition at 1 µM (ACK) [%]	Kinase inhibition % at indicated screening concentration: ABL or ARG (ABL or ARG; screening concentration 1.0 μM)
CCOc1cc(C(=O)N2CCC(F)C2)ccc1Nc1cc2c(cn1)N(C)C(=O)c1occc1N2C (stereo not drawn) [Compound 72]	1230 ± 150	≤ 35	≤ 50	75 to 90	E (E is ≦35%)	≤ 35	E (E is ≦35%)					
COc1cc(NS(C)(=O)=O)ccc1Nc1cc2c(cn1)N(C)C(=O)c1ccccc1N2C [Compound 73]	1840		101 to 500					≤ 35	75 to 90	E (E is ≦35%)	≤ 35	E (E is ≦35%)
CN1C(=O)c2ccccc2N(C)c2cc(N[C@H]3CC[C@H](N4CCCC4)CC3)ncc21 [Compound 74]	4960		101 to 500					≤ 35	50 to 75	E (E is ≦35%)	≤ 35	E (E is ≦35%)
CCOc1cc(C(=O)N2CC[C@H](N(C)C)C2)ccc1Nc1cc2c(cn1)N(C)C(=O)c1ccccc1N2C [Compound 75]	610		≤ 50					≤ 35	> 90	E (E is ≦35%)	≤ 35	E (E is ≦35%)
CCOc1cc(C(=O)NC2CCOCC2)ccc1Nc1cc2c(cn1)N(C)C(=O)c1ccccc1N2C [Compound 80]	1290		101 to 500					≤ 35	50 to 75	E (E is ≦35%)	≤ 35	E (E is ≦35%)
CCOc1cc(C(=O)N2CCNC[C@H]2C)ccc1Nc1cc2c(cn1)N(C)C(=O)c1ccccc1N2C [Compound 82]	1540	≤ 35	≤ 50	75 to 90	E (E is ≦35%)	≤ 35	E (E is ≦35%)					
CCOc1cc(C(=O)NCCOC)ccc1Nc1cc2c(cn1)N(C)C(=O)c1ccccc1N2C [Compound 83]	1480		101 to 500					≤ 35	75 to 90	E (E is ≦35%)	≤ 35	E (E is ≦35%)
CCOc1cc(C(=O)NCCn2ccnc2)ccc1Nc1cc2c(cn1)N(C)C(=O)c1ccccc1N2C [Compound 84]	1180		50 to 100					≤ 35	> 90	E (E is ≦35%)	≤ 35	E (E is ≦35%)
CCOc1cc(C(=O)N(C)CCN(C)C)ccc1Nc1cc2c(cn1)N(C)C(=O)c1ccccc1N2C [Compound 88]	600	≤ 35	≤ 50	> 90	E (E is ≦35%)	≤ 35	E (E is ≦35%)					
CCOc1cc(C(=O)N2CCC(N3CCCC3)CC2)ccc1Nc1cc2c(cn1)N(C)C(=O)c1occc1N2C [Compound 91, 6-((2-Ethoxy-4-(4-(pyrrolidin-1-yl)piperidine-1-carbonyl)phenyl)amino)-4,9-dimethyl-4H-furo[3,2-e]pyrido[3,4-b][1,4]diazepin-10(9H)-one]	710	≤ 35	≤ 50	> 90	E (E is ≦35%)	≤ 35	E (E is ≦35%)					
CCOc1cc(C(=O)N2CCCC(O)C2)ccc1Nc1cc2c(cn1)N(C)C(=O)c1ccccc1N2C (stereo not drawn) [Compound 93]	760		50 to 100					≤ 35	> 90	E (E is ≦35%)	≤ 35	E (E is ≦35%)
CCOc1cc(C(=O)N2CCN(C(C)(C)C)CC2)ccc1Nc1cc2c(cn1)N(C)C(=O)c1ccccc1N2C [Compound 94]	980	≤ 35	≤ 50	75 to 90	E (E is ≦35%)	≤ 35	E (E is ≦35%)					
CCOc1cc(C(=O)N2CCC[C@H](O)C2)ccc1Nc1cc2c(cn1)N(C)C(=O)c1ccccc1N2C [Compound 96]	570	≤ 35	≤ 50	> 90	E (E is ≦35%)	≤ 35	E (E is ≦35%)					
CCOc1cc(C(=O)N[C@H]2CCCOC2)ccc1Nc1cc2c(cn1)N(C)C(=O)c1ccccc1N2C [Compound 100]	1020		> 500					≤ 35	50 to 75	E (E is ≦35%)	≤ 35	E (E is ≦35%)
CCOc1cc(C(=O)NCCOCCO)ccc1Nc1cc2c(cn1)N(C)C(=O)c1ccccc1N2C [Compound 101]	970		101 to 500					≤ 35	75 to 90	E (E is ≦35%)	≤ 35	E (E is ≦35%)
CN1C(=O)c2ccccc2N(C)c2cc(NC3CCOCC3)ncc21 [Compound 102]	2520		101 to 500					≤ 35	75 to 90	E (E is ≦35%)	≤ 35	E (E is ≦35%)
CCOc1cc(C(=O)NCCN(CC)CC)ccc1Nc1cc2c(cn1)N(C)C(=O)c1ccccc1N2C [Compound 103]	620 ± 40	≤ 35	≤ 50	> 90	E (E is ≦35%)	≤ 35	E (E is ≦35%)					
CCOc1cc(C(=O)NCCN2CCCC2)ccc1Nc1cc2c(cn1)N(C)C(=O)c1ccccc1N2C [Compound 105]	1100		101 to 500					≤ 35	75 to 90	E (E is ≦35%)	≤ 35	E (E is ≦35%)
Cc1cc(CN2CCCC2)ccc1Nc1cc2c(cn1)N(C)C(=O)c1ccccc1N2C [Compound 106, 5,11-dimethyl-3-(2-methyl-4-(pyrrolidin-1-ylmethyl)phenylamino)-5H-benzo[e]pyrido[3,4-b][1,4]diazepin-10(11H)-one]	2840		≤ 50					≤ 35	> 90	E (E is ≦35%)	≤ 35	E (E is ≦35%)
CCOc1cc(C(=O)NCCc2ccncc2)ccc1Nc1cc2c(cn1)N(C)C(=O)c1ccccc1N2C [Compound 107]	1310		> 500					≤ 35	50 to 75	E (E is ≦35%)	≤ 35	E (E is ≦35%)
CCOc1cc(C(=O)N2CCN(CC)CC2)ccc1Nc1cc2c(cn1)N(C)C(=O)c1ccccc1N2C [Compound 108]	700		≤ 50					≤ 35	> 90	E (E is ≦35%)	≤ 35	E (E is ≦35%)
